Each compound was assayed on BxPC3 (pancreatic cancer) (assay: ATP level assay (CellTiter-Glo), percent of control). Details: Homo sapiens, BXPC-3, 2 h; compound alone, 100 uM, two hour incubation, control DMSO; read-out: POC (percent of control) BxPC3.
Type: cell-based
Description: (§1) In the present method, the method of using the available assays has been modified to measure the short-term effect of compounds of interest on ATP levels in the cells. […] In the modified method, the control and test cells are initially treated with the metabolic inhibitor for a period of about thirty minutes to about four hours. Typically, the treatment of the cells with the metabolic inhibitor is for one hour prior to adding the compound to be screened for anti-cancer properties. However, simultaneous treatment with the metabolic inhibitor and the compound being screened should provide satisfactory results. […] ATP synthesis in cells occurs over multiple biochemical pathways. These pathways are very responsive to metabolic inhibitors and/or changes in available nutrients. By incorporating a metabolic inhibitor which is known to impact certain pathways, the disclosed method provides for measurement of a compound's direct effects on the remaining metabolic pathways available for ATP synthesis in the cell.
(§2) Following treatment of the control and test cells with the metabolic inhibitor, the method calls for addition of the compound to be screened for anti-cancer properties to the cells. Following addition of the compound of interest, the assay is allowed to continue for about one hour to about four hours or depending on the luminescing agent up to eighteen hours. However, approximately 60 minutes will be sufficient to determine the ATP inhibiting effect of the compound to be screened on the cells. Following completion of the selected time period, the ATP level within the cell is determined. ATP levels can be determined by luminescence according to standard measuring procedures, i.e. the luminescence level of the assay from the living cells treated with the two component composition is compared to the luminescence level of the assay from the living cells without the two component composition, i.e., the control experiment. Thus, the ATP levels are determined without killing the cells during the incubation of the cells in the presence of the compound of interest. As a result, the measured reduction in ATP level corresponds directly to the inhibition of the metabolic pathways uninhibited by the metabolic blocker.
(§3) A wide variety of ATP luminescing detection reagents are available commercially. So long as the reagent produces a luminescence in the presence of ATP, the reagent will be suitable for use in the present method. Suitable reagents include but are not limited to any ATP dependent luciferase such as but not limited to firefly luciferase, other modified luciferase based reagents, i.e. luciferase derivatives. According to the rapid method for determining the anti-cancer activity of a compound, a sample of living cells is distributed across a number of testing wells. Typically, 96-well plates are used; however, the number of wells is not critical to the current method. When using a 96-well plate the number of living cells will commonly be about 20,000. The sample wells contain a cell growth medium to promote cell health and growth and an additive to prevent bacterial contamination of the wells. One common example of the cell growth medium is DMEM with 10% FBS as described above. One example of the additive to prevent bacterial contamination is a solution of penicillin G and streptomycin referred to commonly as Pen-Strep. The Pen-Strep solution typically contains 5000 units of penicillin G and 5000 micrograms of streptomycin. Thus, the rapid determination of anti-cancer compounds can be carried out using the following method. • The desired number of cells are distributed in a 96-well plate containing 100 μL DMEM plus 10% FBS with optional Pen-Strep. • After 24 hours, cells are treated with the compound of interest or a 5% solution of dimethyl sulfoxide (DMSO) in water as a control. • The time period for exposure to the compound of interest and the DMSO control will vary depending on the luminescing detection reagent. […]

Row | Compound | activity at 100 µM
1 | CS(=O)(=O)NCc1c[nH]c2ccccc12 [Compound 26, N-(1H-indol-3-ylmethyl)methanesulfonamide] | 99.1%

Same assay, conditions: compound 100 uM + 2DG (about 10-20 mM), two hour incubation

Row | Compound | POC (percent of control) BxPC3
2 | CS(=O)(=O)NCc1c[nH]c2ccccc12 [Compound 26, N-(1H-indol-3-ylmethyl)methanesulfonamide] | 86.6% of control

Same assay, conditions: compound 100 uM + rotenone (approximately 1.25 μM), two hour incubation

Row | Compound | POC (percent of control) BxPC3
3 | CS(=O)(=O)NCc1c[nH]c2ccccc12 [Compound 26, N-(1H-indol-3-ylmethyl)methanesulfonamide] | 88.8% of control

Each compound was assayed on H293 (kidney cancer) in the same assay as above. Details: 2 h; compound alone, 100 uM, two hour incubation, control DMSO; read-out: POC (percent of control) H293.
Type: cell-based
Description: as §1, §2, §3

Row | Compound | activity at 100 µM
4 | CS(=O)(=O)NCc1c[nH]c2ccccc12 [Compound 26, N-(1H-indol-3-ylmethyl)methanesulfonamide] | 110%

Same assay, conditions: compound 100 uM + 2DG (about 10-20 mM), two hour incubation

Row | Compound | POC (percent of control) H293
5 | CS(=O)(=O)NCc1c[nH]c2ccccc12 [Compound 26, N-(1H-indol-3-ylmethyl)methanesulfonamide] | 72.9% of control

Same assay, conditions: compound 100 uM + rotenone (approximately 1.25 μM), two hour incubation

Row | Compound | POC (percent of control) H293
6 | CS(=O)(=O)NCc1c[nH]c2ccccc12 [Compound 26, N-(1H-indol-3-ylmethyl)methanesulfonamide] | 72% of control

Each compound was assayed on HDF (normal cells) in the same assay as above. Details: 2 h; compound alone, 100 uM, two hour incubation, control DMSO; read-out: POC (percent of control) HDF.
Type: cell-based
Description: as §1, §2, §3

Row | Compound | activity at 100 µM
7 | CS(=O)(=O)NCc1c[nH]c2ccccc12 [Compound 26, N-(1H-indol-3-ylmethyl)methanesulfonamide] | 106%

Same assay, conditions: compound 100 uM + 2DG (about 10-20 mM), two hour incubation

Row | Compound | POC (percent of control) HDF
8 | CS(=O)(=O)NCc1c[nH]c2ccccc12 [Compound 26, N-(1H-indol-3-ylmethyl)methanesulfonamide] | 91.1% of control

Same assay, conditions: compound 100 uM + rotenone (approximately 1.25 μM), two hour incubation

Row | Compound | POC (percent of control) HDF
9 | CS(=O)(=O)NCc1c[nH]c2ccccc12 [Compound 26, N-(1H-indol-3-ylmethyl)methanesulfonamide] | 86.9% of control

What follows are compounds tested on HeLa (cervical cancer) in the same assay as above. Details: Homo sapiens, HeLa, 2 h; compound alone, 100 uM, two hour incubation, control DMSO; read-out: POC (percent of control) HeLa.
Type: cell-based
Description: as §1, §2, §3

Row | Compound | activity at 100 µM
10 | CS(=O)(=O)NCc1c[nH]c2ccccc12 [Compound 26, N-(1H-indol-3-ylmethyl)methanesulfonamide] | 90.4%

Same assay, conditions: compound 100 uM + 2DG (about 10-20 mM), two hour incubation

Row | Compound | POC (percent of control) HeLa
11 | CS(=O)(=O)NCc1c[nH]c2ccccc12 [Compound 26, N-(1H-indol-3-ylmethyl)methanesulfonamide] | 106.9% of control

Same assay, conditions: compound 100 uM + rotenone (approximately 1.25 μM), two hour incubation

Row | Compound | POC (percent of control) HeLa
12 | CS(=O)(=O)NCc1c[nH]c2ccccc12 [Compound 26, N-(1H-indol-3-ylmethyl)methanesulfonamide] | 96.3% of control

Each compound was assayed on MCF10A (non-cancerous breast) in the same assay as above. Details: Homo sapiens, MCF-10A, 2 h; compound alone, 100 uM, two hour incubation, control DMSO; read-out: POC (percent of control) MCF10A.
Type: cell-based
Description: as §1, §2, §3

Row | Compound | activity at 100 µM
13 | CS(=O)(=O)NCc1c[nH]c2ccccc12 [Compound 26, N-(1H-indol-3-ylmethyl)methanesulfonamide] | 106%

Same assay, conditions: compound 100 uM + 2DG (about 10-20 mM), two hour incubation

Row | Compound | POC (percent of control) MCF10A
14 | CS(=O)(=O)NCc1c[nH]c2ccccc12 [Compound 26, N-(1H-indol-3-ylmethyl)methanesulfonamide] | 99.9% of control

Same assay, conditions: compound 100 uM + rotenone (approximately 1.25 μM), two hour incubation

Row | Compound | POC (percent of control) MCF10A
15 | CS(=O)(=O)NCc1c[nH]c2ccccc12 [Compound 26, N-(1H-indol-3-ylmethyl)methanesulfonamide] | 81% of control

The compounds below were run on MCF7 (breast cancer) in the same assay as above. Details: Homo sapiens, MCF7, 2 h; compound alone, 100 uM, two hour incubation, control DMSO; read-out: POC (percent of control) MCF7.
Type: cell-based
Description: as §1, §2, §3

Row | Compound | activity at 100 µM
16 | CS(=O)(=O)NCc1c[nH]c2ccccc12 [Compound 26, N-(1H-indol-3-ylmethyl)methanesulfonamide] | 114%

Same assay, conditions: compound 100 uM + 2DG (about 10-20 mM), two hour incubation

Row | Compound | POC (percent of control) MCF7
17 | CS(=O)(=O)NCc1c[nH]c2ccccc12 [Compound 26, N-(1H-indol-3-ylmethyl)methanesulfonamide] | 95.9% of control

Same assay, conditions: compound 100 uM + rotenone (approximately 1.25 μM), two hour incubation

Row | Compound | POC (percent of control) MCF7
18 | CS(=O)(=O)NCc1c[nH]c2ccccc12 [Compound 26, N-(1H-indol-3-ylmethyl)methanesulfonamide] | 119.8% of control

These compounds were tested on MDA-MB (breast cancer) in the same assay as above. Details: 2 h; compound alone, 100 uM, two hour incubation, control DMSO; read-out: POC (percent of control) MDA-MB.
Type: cell-based
Description: as §1, §2, §3

Row | Compound | activity at 100 µM
19 | CS(=O)(=O)NCc1c[nH]c2ccccc12 [Compound 26, N-(1H-indol-3-ylmethyl)methanesulfonamide] | 90.2%

Same assay, conditions: compound 100 uM + 2DG (about 10-20 mM), two hour incubation

Row | Compound | POC (percent of control) MDA-MB
20 | CS(=O)(=O)NCc1c[nH]c2ccccc12 [Compound 26, N-(1H-indol-3-ylmethyl)methanesulfonamide] | 87.6% of control

Same assay, conditions: compound 100 uM + rotenone (approximately 1.25 μM), two hour incubation

Row | Compound | POC (percent of control) MDA-MB
21 | CS(=O)(=O)NCc1c[nH]c2ccccc12 [Compound 26, N-(1H-indol-3-ylmethyl)methanesulfonamide] | 79.2% of control

Each compound was assayed on NCI-H196 (lung cancer) in the same assay as above. Details: NCI-H196, 2 h; compound alone, 100 uM, two hour incubation, control DMSO; read-out: POC (percent of control) NCI-H196.
Type: cell-based
Description: as §1, §2, §3

Row | Compound | activity at 100 µM
22 | CS(=O)(=O)NCc1c[nH]c2ccccc12 [Compound 26, N-(1H-indol-3-ylmethyl)methanesulfonamide] | 220%

Same assay, conditions: compound 100 uM + 2DG (about 10-20 mM), two hour incubation

Row | Compound | POC (percent of control) NCI-H196
23 | CS(=O)(=O)NCc1c[nH]c2ccccc12 [Compound 26, N-(1H-indol-3-ylmethyl)methanesulfonamide] | 91.3% of control

Same assay, conditions: compound 100 uM + rotenone (approximately 1.25 μM), two hour incubation

Row | Compound | POC (percent of control) NCI-H196
24 | CS(=O)(=O)NCc1c[nH]c2ccccc12 [Compound 26, N-(1H-indol-3-ylmethyl)methanesulfonamide] | 80.8% of control

These compounds were tested on PC3 (prostate cancer) in the same assay as above. Details: 2 h; compound alone, 100 uM, two hour incubation, control DMSO; read-out: POC (percent of control) PC3.
Type: cell-based
Description: as §1, §2, §3

Row | Compound | activity at 100 µM
25 | CS(=O)(=O)NCc1c[nH]c2ccccc12 [Compound 26, N-(1H-indol-3-ylmethyl)methanesulfonamide] | 92.3%

Same assay, conditions: compound 100 uM + 2DG (about 10-20 mM), two hour incubation

Row | Compound | POC (percent of control) PC3
26 | CS(=O)(=O)NCc1c[nH]c2ccccc12 [Compound 26, N-(1H-indol-3-ylmethyl)methanesulfonamide] | 111.5% of control

Same assay, conditions: compound 100 uM + rotenone (approximately 1.25 μM), two hour incubation

Row | Compound | POC (percent of control) PC3
27 | CS(=O)(=O)NCc1c[nH]c2ccccc12 [Compound 26, N-(1H-indol-3-ylmethyl)methanesulfonamide] | 89.6% of control

The compounds below were run on SkBr3 (breast cancer) in the same assay as above. Details: Homo sapiens, SK-BR-3, 2 h; compound alone, 100 uM, two hour incubation, control DMSO; read-out: POC (percent of control) SkBr3.
Type: cell-based
Description: as §1, §2, §3

Row | Compound | activity at 100 µM
28 | CS(=O)(=O)NCc1c[nH]c2ccccc12 [Compound 26, N-(1H-indol-3-ylmethyl)methanesulfonamide] | 109%

Same assay, conditions: compound 100 uM + 2DG (about 10-20 mM), two hour incubation

Row | Compound | POC (percent of control) SkBr3
29 | CS(=O)(=O)NCc1c[nH]c2ccccc12 [Compound 26, N-(1H-indol-3-ylmethyl)methanesulfonamide] | 95.7% of control

Same assay, conditions: compound 100 uM + rotenone (approximately 1.25 μM), two hour incubation

Row | Compound | POC (percent of control) SkBr3
30 | CS(=O)(=O)NCc1c[nH]c2ccccc12 [Compound 26, N-(1H-indol-3-ylmethyl)methanesulfonamide] | 97.1% of control

Each compound was assayed on T47D (breast cancer) in the same assay as above. Details: Homo sapiens, T47D, 2 h; compound alone, 100 uM, two hour incubation, control DMSO; read-out: POC (percent of control) T47D.
Type: cell-based
Description: as §1, §2, §3

Row | Compound | activity at 100 µM
31 | CS(=O)(=O)NCc1c[nH]c2ccccc12 [Compound 26, N-(1H-indol-3-ylmethyl)methanesulfonamide] | 93.3%

Same assay, conditions: compound 100 uM + 2DG (about 10-20 mM), two hour incubation

Row | Compound | POC (percent of control) T47D
32 | CS(=O)(=O)NCc1c[nH]c2ccccc12 [Compound 26, N-(1H-indol-3-ylmethyl)methanesulfonamide] | 101% of control

Same assay, conditions: compound 100 uM + rotenone (approximately 1.25 μM), two hour incubation

Row | Compound | POC (percent of control) T47D
33 | CS(=O)(=O)NCc1c[nH]c2ccccc12 [Compound 26, N-(1H-indol-3-ylmethyl)methanesulfonamide] | 90.8% of control

From patent US20230266302A1, “SYNTHESIS AND USE OF N-BENZYL SULFONAMIDES” (THE UNIVERSITY OF TULSA, priority 2020, published 2023)
